Assay results reported in patent EP1487791B1, “A NOVEL ANTIFUNGAL MOLECULE 2-(3,4-DIMETHYL-2,5-DIHYDRO-1H-PYRROL-2-YL)- METHYLETHYL PENTANOATE” (priority 2002, dated 2003).
Converted amounts (≈) assume the structure as drawn.

Legend:
Aspergillus species = assay: Spore germination inhibition assay; type: cell-based; conditions: percent spore germination inhibition, 10 hrs at 37° C
Experimental: Pathogenic strains of fungi were obtained from the Mycology Department of Vallabhbhai Patel Chest Institute, Delhi. All the strains were grown on Sabouraud dextrose agar at 37°C. The conidia form these cultures were harvested and suspended in Sabouraud maltose broth. The number of conidia was counted using haemocytometer and their number in the suspension was adjusted to as per need of the experiment.
The modified spore germination inhibition assay was performed as described earlier (Sureder P. and Janaiah C., 1987, Ind. J. Expt. Biol., 25, 233-234). The fungal species were grown on Sabouraud dextrose agar plates at 37°C for 96 h. […] The conidia were counted and their number in the suspension was adjusted to 1x10^4 per ml. The standard drug Amphotericin B and test samples were initially dissolved in minimal quantity of dimethylsulfoxide (DMSO) and then diluted with Sabouraud dextrose medium. […] The number of germinated and non-germinated spores was counted. The percent spore germination inhibition (PSGI) was calculated using following formula PSGI = 100-(No.of spores germinated in drug treated well)/(No.of spores germinated in control well) [formula] […]
The spore germination inhibition assay was performed to evaluate the activity of the compound. […] The number of germinated and non-germinated spores was counted and the percent spore germination inhibition (PSGI) was calculated. […]

A. fumigatus = assay: Quantification of colony forming units in organs of infected mice; type: in vivo, Balb/C mice
Description: In vivo efficacy of the compound against A. fumigatus infection was studied in the Balb/C mice of 6-8 weak of age of either sex, weighing 15-20 g each. The mice model of aspergillosis described by Dixon et al (1989), was used to study the effects of compound on in vivo infection of A. fumigatus.
The animals were housed in the micro-barrier cages on sterile bedding and fed ad libitum water and food. The mice were divided into 6 groups and each group contained 8-10 animals. The mice were infected experimentally with A. fumigatus. Three days prior to infection with conidia, mice were injected subcutaneously with 3 doses (250.0 mg/kg/day) of cortisone acetate in 400.0 µl of PBS. On the infection day, each mouse received 2x10^7 conidia by nasal instillation of a single droplet of conidial suspension. The animals of this model developed invasive aspergillosis and all the infected animals died within 4-6 days.
A. fumigatus (190/96) isolate was grown on Sabouraud dextrose agar plates at 37 °C for 4 days. The conidia were collected from the culture plates using PBS (pH 7.2) containing 0.05% Tween 80 (Sigma Chemicals) and the suspension was filtered through sterile glass wool. The conidia were pelleted by centrifugation at 2000 rpm and re-suspended in PBS, pH 7.2. The number of conidia, was counted and adjusted to 1x10^8 conidia/ml. The viability of the conidia was determined by plating the dilutions of suspensions on Sabouraud dextrose agar.
The dosing of the animals (cortisone treated and challenged) with compound in 6 different groups was initiated within 30 min after challenge with A. fumigatus conidia. Group I: The mice were treated orally with 7 doses of 25.0 mg/kg/day of the compound. Group II: The animals infected with A. fumigatus conidia were given 50.0 mg/kg/day of the compound for 7 days orally. Group III: The animals in this group were given 7 oral doses of 100.0 mg/kg/day of the compound. Group IV: In this group of animals, 7 oral doses of the compound (200.0 mg/kg/day) were given. Group V: The animals of this group were treated with 7 doses of 400.0 mg/kg/day orally over a period of 7 days. Group VI: The animals of this group acted as control and were treated orally with 7 doses of 400 µl PBS containing solvent.
(§1) The mice were kept under constant watch and those getting moribund, dying or survived up to 10 days were sacrificed. The autopsy was performed on the mice who had died to remove their organs for quantification of colony forming units (CFU). The lungs, livers and kidneys of the mice were removed aseptically, placed in sterile PBS (pH 7.2) and homogenized with teflon pestle mortar. The CFU in the animals were determined by plating 10 fold dilutions of organ homogenates on Sabouraud dextrose agar containing 0.05% triton X-100. The triton X-100 limited the colony size and thus greatly facilitated colony counting (Frosco, 1992). After an incubation for 48 h at 37 °C, colonies were counted and results were expressed as CFU per organ. The survival time and CFU indicating the fungal burden in various organs were considered
as §1, with “The survival time and CFU indicating the fungal burden in various organs were considered” left out

[1] = Group I, 25.0 mg/kg body weight oral
[2] = Group II, 50.0 mg/kg body weight oral
[3] = Group III, 100.0 mg/kg body weight oral
[4] = Group IV, 200.0 mg/kg body weight oral
[5] = Group V, 400.0 mg/kg body weight oral

**Q.** What does the source list for CCCCC(=O)OC(C)CC1NCC(C)=C1C (centres unmarked) [PC-1, 2-(3,4-dimethyl-2,5-dihydro-1H-pyrrol-2-yl)-1-methylethyl pentanoate]?
**A.** MIC (Aspergillus species): 87.5 µg/mL (≈ 366 µM); colony counts as compared to controls (A. fumigatus; 400 mg/kg body weight, p < 0.001): reduced the colony counts significantly; number of CFUs in the kidneys (A. fumigatus; 100.0 to 400.0 mg/kg body weight): significant reduction; CFU/Organs (Mean+ SD) Kidney (A. fumigatus; [1]): 1402.5+350.09 CFU/Organs; CFU/Organs (Mean+ SD) Liver (A. fumigatus; [1]): 255.0+72.45 CFU/Organs; CFU/Organs (Mean+ SD) Lung (A. fumigatus; [1]): 907.5+246.09 CFU/Organs; CFU/Organs (Mean+ SD) Kidney (A. fumigatus; [2]): 1040.5+441.78 CFU/Organs; CFU/Organs (Mean+ SD) Liver (A. fumigatus; [2]): 290.6+135.58 CFU/Organs; CFU/Organs (Mean+ SD) Lung (A. fumigatus; [2]): 900.0+230.29 CFU/Organs; CFU/Organs (Mean+ SD) Kidney (A. fumigatus; [3]): 733.3+394.69 CFU/Organs; CFU/Organs (Mean+ SD) Liver (A. fumigatus; [3]): 216.7+108.97 CFU/Organs; CFU/Organs (Mean+ SD) Lung (A. fumigatus; [3]): 650.1+171.85 CFU/Organs; CFU/Organs (Mean+ SD) Kidney (A. fumigatus; [4]): 683.3+352.67 CFU/Organs; CFU/Organs (Mean+ SD) Liver (A. fumigatus; [4]): 225.0+91.85 CFU/Organs; CFU/Organs (Mean+ SD) Lung (A. fumigatus; [4]): 525.0+251.56 CFU/Organs; CFU/Organs (Mean+ SD) Kidney (A. fumigatus; [5]): 225.0+157.39 CFU/Organs; CFU/Organs (Mean+ SD) Liver (A. fumigatus; [5]): 165.0+117.84 CFU/Organs; CFU/Organs (Mean+ SD) Lung (A. fumigatus; [5]): 180.0+127.75 CFU/Organs; effect on the CFUs in the lung tissue (A. fumigatus; doses of 25.0 and 50.0 mg/kg body weight): did not have any effect; effect of the compound on CFUs in liver (A. fumigatus; liver): very less effect
